One assay concerns the target T1, BRAF V600E (Homo sapiens, UniProt P15056, V600E).
T1 construct: purchased Upstate Biotechnology
In words: BRAF V600E biochemical kinase activity assay (AlphaScreen, biotin-MEK1 substrate). The note with it: BRAF V600E biochemical inhibitory activity. On the procedure:
Compounds to be tested are diluted in dimethyl sulfoxide to a concentration of 0.1 mM. These are serially diluted 15 μL into 30 μL of dimethyl sulfoxide seven times in 96 well plates for a total of 8 dilution points, and for each dilution point 1 μL is added to a well of an assay plate. […] The reaction is started with addition of 10 μL of 200 μM ATP (i.e. final 100 μM ATP). After incubation of the kinase reaction for 45 minutes at room temperature, 5 μL/well of Stop Solution is added (25 mM Hepes pH 7.5, 100 mM EDTA, 0.01% BSA with donor beads (Streptavidin coated beads, Perkin Elmer), acceptor beads (Protein A coated, Perkin Elmer), and anti-phosphor MEK1/2 antibody (CellSignal), each at final concentration 10 μg/mL). The plates are incubated for 3 hours at room temperature and read on Envision reader (Perkin Elmer). Phosphorylation of Mek1 results in binding of the anti-phosphor-MEK1/2antibody and association of the donor and acceptor beads such that signal correlates with kinase activity. The signal versus compound concentration is used to determine the IC50.
The in vitro RAF kinase activities were determined by measuring phosphorylation of a biotinylated substrate peptide as described previously (Tsai, J. et al. Proc Natl Acad Sci USA 105, 3041-3046 (2008)). Compounds of formula (I), e.g., compound A, was also tested against a panel of 287 kinases at concentrations of 1 μM in duplicate. Kinases inhibited by over 50% were followed up by IC50 determination. The 287 kinases represent all major branches of the kinome phylogenetic tree. The inhibition screen of 287 kinases was carried out under contract as complementary panels at Invitrogen (Life Technologies, Wis., USA) SelectScreen™ profiling service, DiscoverX (CA, USA) KINOMEScan™ service, and Reaction Biology Corporation (PA, USA) Kinase HotSpot℠ service.

For a further assay, the system named is B9 (HRAS Q61L) cell line. In words: B9 P-ERK cell activation assay (AlphaScreen). Conditions: Mus musculus, P-ERK cell activation, B9, read-out: Cell activity (EC50 μM) B9_pERK. The assay is classed as cell-based, mouse. The procedure:
(§1) B9 is a squamous cell carcinoma cell line expressing activated HRAS that was isolated from a DMBA/TPA-induced mouse model of skin carcinogenesis (Stoler, et al. The Journal of Cell Biology, 1993, 122(5), 1103-17). IPC-298 is a human melanoma cell line that expresses activated NRAS (Aubert, et al. International Journal of Cancer, 1993, 54(5), 784-92). To determine whether compounds induce phosphorylated ERK and MEK, cells are plated in a 96-well dish and treated with an 8-point titration of compound for one hour at 37° C. The media is then removed and the cells are incubated with lysis buffer containing protease and phosphatase inhibitors. Phosphorylated ERK and MEK in the resulting lysates is detected using AlphaScreen™ technology. To detect phosphorylated ERK, cell lysates are incubated with streptavidin-coated donor beads, anti-mouse IgG acceptor beads, a biotinylated anti-ERK1/2 rabbit antibody, and a mouse antibody that recognizes ERK1/2 only when it is phosphorylated on Thr202 and Tyr204. The biotinylated ERK1/2 antibody will bind to both the streptavidin-coated donor beads and to ERK1/2 (regardless of its phosphorylation state), and the phospho-ERK1/2 antibody will bind to the acceptor beads and to ERK1/2 that is phosphorylated at Thr202/Tyr204. Excitation of the beads with laser light at 680 nm produces singlet oxygen, which is rapidly quenched unless the beads are in close proximity. When ERK is phosphorylated, both antibodies can bind the same protein, bringing the donor and acceptor beads into close proximity, producing a signal that can be measured at 580 nm. MEK phosphorylation is detected using a similar approach, only with antibodies directed against total MEK1/2 and MEK1/2 that is phosphorylated at Ser217 and Ser221.
(§2) Phospho-ERK AlphaScreen® assay. To determine the effects of compound treatment upon phosphorylation of ERK1/2, cells were plated in a 96-well dish and treated with an 8-point titration of compound for one hour at 37° C. before lysis. To detect pERK, cell lysates were incubated with streptavidin-coated AlphaScreen® donor beads, anti-mouse IgG AlphaScreen® acceptor beads, a biotinylated anti-ERK1/2 rabbit antibody, and a mouse antibody that recognizes ERK1/2 only when it is phosphorylated on Thr202 and Tyr204. The biotinylated ERK1/2 antibody binds to both the streptavidin-coated AlphaScreen® donor beads and to ERK1/2 (regardless of its phosphorylation state), and the phospho-ERK1/2 antibody binds to the acceptor beads and to ERK1/2 that is phosphorylated at Thr202/Tyr204. An increase in ERK1/2 phosphorylation at Thr202/Tyr204 brings the donor and acceptor AlphaScreen® beads into close proximity, generating a signal that can be quantified on an EnVision reader (Perkin Elmer).
(In general: In Alpha technology, singlet oxygen from a donor bead excites a nearby acceptor bead.)

For assay [1], the system named is A375 (BRAF V600E) cell line. Put plainly: A375 P-ERK inhibition assay (AlphaScreen). Type of assay: cell-based, human. The note with it: Homo sapiens, A-375; A375_P-ERK. On the procedure: as §2
Assay [2] has as its system IPC-298 (NRAS Q61L) cell line. In words: IPC-298 P-ERK cell activation assay (AlphaScreen). Type of assay: cell-based, human. The note with it: Homo sapiens, P-ERK cell activation, IPC-298, read-out: Cell activity (EC50 μM) IPC-298_P-ERK. The procedure:
as §1, §2

Where two headings read alike, the source gives them in different places.

T1 sequence (P15056 whole entry V600E): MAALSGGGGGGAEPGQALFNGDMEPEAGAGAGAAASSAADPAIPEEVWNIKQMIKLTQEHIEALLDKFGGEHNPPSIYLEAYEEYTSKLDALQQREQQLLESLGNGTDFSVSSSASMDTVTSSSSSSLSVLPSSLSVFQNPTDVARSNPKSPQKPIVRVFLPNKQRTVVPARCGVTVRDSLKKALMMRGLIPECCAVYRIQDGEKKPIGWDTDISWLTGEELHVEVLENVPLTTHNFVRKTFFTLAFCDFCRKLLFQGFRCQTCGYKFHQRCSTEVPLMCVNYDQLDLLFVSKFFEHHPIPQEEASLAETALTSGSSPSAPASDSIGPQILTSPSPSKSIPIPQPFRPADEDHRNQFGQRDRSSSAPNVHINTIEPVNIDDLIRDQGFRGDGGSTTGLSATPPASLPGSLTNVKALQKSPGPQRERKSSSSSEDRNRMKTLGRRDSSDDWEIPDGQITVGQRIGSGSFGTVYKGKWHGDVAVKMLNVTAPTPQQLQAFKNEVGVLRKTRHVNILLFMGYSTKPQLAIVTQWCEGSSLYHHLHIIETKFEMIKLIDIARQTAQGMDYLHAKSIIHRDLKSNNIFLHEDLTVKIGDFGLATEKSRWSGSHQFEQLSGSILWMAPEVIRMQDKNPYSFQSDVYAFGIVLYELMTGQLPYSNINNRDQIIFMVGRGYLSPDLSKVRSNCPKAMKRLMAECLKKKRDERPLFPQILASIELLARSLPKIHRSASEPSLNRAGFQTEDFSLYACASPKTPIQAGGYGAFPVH

One may read the IC50 as the concentration at which inhibition is half-maximal. Lower therefore signals inhibition by little substance. As usually defined, the EC50 is the concentration that produces a half-maximal response. Consider `CCN(C)S(=O)(=O)Nc1cccc(C(=O)c2c[nH]c3ncnc(OC)c23)c1F` [P-2092, 5-[3-[[ethyl(methyl)sulfamoyl]amino]-2-fluoro-benzoyl]-4-methoxy-7H-pyrrolo[2,3-d]pyrimidine], for which the concentration for half-maximal inhibition (IC50) (against BRAF V600E; in assay [1]) was 0.0001 to 1 µM in each case. The EC50 (in the assay on B9 (HRAS Q61L) cell line (numeric bounds); in assay [2] (numeric bounds)) was more than 10 µM each time.
Consider `CC(C)Nc1ncnc2[nH]cc(C(=O)c3c(F)ccc(NS(=O)(=O)C4CCC4)c3F)c12` [P-2043, N-[2,4-difluoro-3-[4-(isopropylamino)-7H-pyrrolo[2,3-d]pyrimidine-5-carbonyl]phenyl]cyclobutanesulfonamide], for which the 50% inhibitory concentration (IC50) (against BRAF V600E; in assay [1]) was 1 to 10 µM each time. In addition, the EC50 (in the assay on B9 (HRAS Q61L) cell line (numeric bounds); in assay [2] (numeric bounds)) was more than 10 µM in each case.
Consider `N#Cc1ccnc2[nH]cc(C(=O)c3c(F)ccc(NS(=O)(=O)N4CCCC4)c3F)c12` [P-2019, N-[3-(4-cyano-1H-pyrrolo[2,3-b]pyridine-3-carbonyl)-2,4-difluoro-phenyl]pyrrolidine-1-sulfonamide], for which the IC50 (on BRAF V600E; in assay [1]) was 0.0001 to 1 µM throughout. Further, the EC50 (in the assay on B9 (HRAS Q61L) cell line (numeric bounds); in assay [2] (numeric bounds)) was more than 10 µM throughout.
`COC(=O)N[C@@H](C)CNc1nccc(-c2sc(-c3ccccc3)nc2-c2cccc(NS(=O)(=O)N3CC[C@H](F)C3)c2F)n1` [P-2153, methyl N-[(1S)-2-[[4-[4-[2-fluoro-3-[[(3S)-3-fluoropyrrolidin-1-yl]sulfonylamino]phenyl]-2-phenyl-thiazol-5-yl]pyrimidin-2-yl]amino]-1-methyl-ethyl]carbamate]: the IC50 (against BRAF V600E; in assay [1]) was 0.0001 to 1 µM each time. For the same compound, the EC50 (in the assay on B9 (HRAS Q61L) cell line (class symbols); in assay [2] (class symbols)) was 0.0001 to 1 µM each time.
Regarding `O=C(c1c(F)ccc(NS(=O)(=O)C2CCCC2)c1F)c1c[nH]c2nccc(Cl)c12` [P-2015, N-[3-(4-chloro-1H-pyrrolo[2,3-b]pyridine-3-carbonyl)-2,4-difluoro-phenyl]cyclopentanesulfonamide], the values for the IC50 (against BRAF V600E; in assay [1]) were 0.0001 to 1 µM and more than 10 µM, respectively. For the same compound, the EC50 (with B9 (HRAS Q61L) cell line (numeric bounds); in assay [2] (numeric bounds)) was more than 10 µM in each case.
Consider `COc1ccnc2[nH]cc(C(=O)c3c(F)ccc(NS(=O)(=O)C(C)C)c3F)c12` [Compound P-2001, N-[2,4-difluoro-3-(4-methoxy-1H-pyrrolo[2,3-b]pyridine-3-carbonyl)phenyl]propane-2-sulfonamide], for which the IC50 at BRAF V600E is 0.0001 to 1 µM; in assay [1], more than 10 µM. The EC50 (with B9 (HRAS Q61L) cell line (numeric bounds); in assay [2] (numeric bounds)) was more than 10 µM throughout.
For `O=C(c1c(F)ccc(NS(=O)(=O)N2CCCC2)c1F)c1c[nH]c2nccc(Cl)c12` [P-2025, N-[3-(4-chloro-1H-pyrrolo[2,3-b]pyridine-3-carbonyl)-2,4-difluoro-phenyl]pyrrolidine-1-sulfonamide], the IC50 (against BRAF V600E; in assay [1]) was 0.0001 to 1 µM each time. The EC50 (with B9 (HRAS Q61L) cell line (numeric bounds); in assay [2] (numeric bounds)) was more than 10 µM each time.
As for `CCN(C)S(=O)(=O)Nc1cccc(C(=O)c2c[nH]c3ncnc(NC4CCOCC4)c23)c1F` [P-2075, 5-[3-[[ethyl(methyl)sulfamoyl]amino]-2-fluoro-benzoyl]-4-(tetrahydropyran-4-ylamino)-7H-pyrrolo[2,3-d]pyrimidine], the IC50 (against BRAF V600E; in assay [1]) was 0.0001 to 1 µM in each case. The EC50 (in the assay on B9 (HRAS Q61L) cell line (numeric bounds); in assay [2] (numeric bounds)) was more than 10 µM throughout.
On to `COc1ccnc2[nH]cc(C(=O)c3c(F)ccc(NS(=O)(=O)C4CCC4)c3F)c12` [Compound P-2010, N-[2,4-difluoro-3-(4-methoxy-1H-pyrrolo[2,3-b]pyridine-3-carbonyl)phenyl]cyclobutanesulfonamide], for which the IC50 was in the range of 0.0001 to 1 µM at BRAF V600E and 1 to 10 µM in assay [1]. Besides, the EC50 (with B9 (HRAS Q61L) cell line (numeric bounds); in assay [2] (numeric bounds)) was more than 10 µM throughout.
Regarding `CC(C)(O)CCNc1ncnc2[nH]cc(C(=O)c3cccc(NS(=O)(=O)N4CCCC4)c3F)c12` [P-2108, N-[2-fluoro-3-[4-[(3-hydroxy-3-methyl-butyl)amino]-7H-pyrrolo[2,3-d]pyrimidine-5-carbonyl]phenyl]pyrrolidine-1-sulfonamide], the IC50 (at BRAF V600E; in assay [1]) was 0.0001 to 1 µM in each case. Moreover, the EC50 (in the assay on B9 (HRAS Q61L) cell line (numeric bounds); in assay [2] (numeric bounds)) was more than 10 µM in each case.
As to `O=C(c1cc(F)cc(NS(=O)(=O)N2CC[C@@H](F)C2)c1F)c1c[nH]c2ncc(-c3cnc(C4CC4)nc3)cc12` [P-2172, (3R)—N-[3-[5-(2-cyclopropylpyrimidin-5-yl)-1H-pyrrolo[2,3-b]pyridine-3-carbonyl]-2,5-difluoro-phenyl]-3-fluoro-pyrrolidine-1-sulfonamide], the IC50 (at BRAF V600E; in assay [1]) was 0.0001 to 1 µM in each case. Also, the EC50 in the assay with B9 (HRAS Q61L) cell line (numeric bounds) is more than 1 µM; in assay [2] (numeric bounds), more than 10 µM.
With `CC(C)Nc1ncnc2[nH]cc(C(=O)c3c(F)ccc(NS(=O)(=O)C4CCCC4)c3F)c12` [P-2040, N-[2,4-difluoro-3-[4-(isopropylamino)-7H-pyrrolo[2,3-d]pyrimidine-5-carbonyl]phenyl]cyclopentanesulfonamide], the IC50 (against BRAF V600E; in assay [1]) was 0.0001 to 1 µM each time. In addition, the EC50 (in the assay on B9 (HRAS Q61L) cell line (numeric bounds); in assay [2] (numeric bounds)) was more than 10 µM throughout.
As to `N#Cc1ccnc2[nH]cc(C(=O)c3c(F)ccc(NS(=O)(=O)C4CCC4)c3F)c12` [P-2021, N-[3-(4-cyano-1H-pyrrolo[2,3-b]pyridine-3-carbonyl)-2,4-difluoro-phenyl]cyclobutanesulfonamide], the results for the IC50 (against BRAF V600E; in assay [1]) were 0.0001 to 1 µM and more than 10 µM, respectively. Moreover, the EC50 (in the assay on B9 (HRAS Q61L) cell line (numeric bounds); in assay [2] (numeric bounds)) was more than 10 µM in each case.
Regarding `CC(C)Nc1ncnc2[nH]cc(C(=O)c3c(F)ccc(NS(=O)(=O)N4CCCCC4)c3F)c12` [P-2038, N-[2,4-difluoro-3-[4-(isopropylamino)-7H-pyrrolo[2,3-d]pyrimidine-5-carbonyl]phenyl]piperidine-1-sulfonamide], the IC50 (against BRAF V600E; in assay [1]) was 0.0001 to 1 µM each time. Also, the EC50 (in the assay on B9 (HRAS Q61L) cell line (numeric bounds); in assay [2] (numeric bounds)) was more than 10 µM throughout.
On to `O=C(c1c(F)ccc(NS(=O)(=O)C2CCC2)c1F)c1c[nH]c2ncncc12` [P-2030, N-[2,4-difluoro-3-(7H-pyrrolo[2,3-d]pyrimidine-5-carbonyl)phenyl]cyclobutanesulfonamide], for which the IC50 (at BRAF V600E; in assay [1]) was 1 to 10 µM throughout. Also, the concentration for a half-maximal effect (EC50) (in the assay on B9 (HRAS Q61L) cell line (numeric bounds); in assay [2] (numeric bounds)) was more than 10 µM in each case.
